Legend:
Type in all cases: physicochemical
[1] = Through life dose consistency of sodium cromoglycate pMDI suspensions (USP <601>, apparatus A)
Description: (§1) In the following examples, dose consistency was determined by in vitro measurement of single actuation dose content at start, middle and end of pMDI unit life in line with U.S. Pharmacopeia (USP)<601>, using a flow rate of 28.3 L/min and apparatus A. Aerodynamic particle size distribution of the pMDI suspension aerosols was measured at start of unit life in line with U.S. Pharmacopeia (USP)<601> using a Next Generation impactor without pre-separator (apparatus 6) and a flow rate of 30 L/min.
(§2) A first set of suspensions included no ethanol. A second set of suspensions included 2% ethanol by weight.
(§3) In total, ten suspension pMDI formulations were prepared in triplicate with sufficient fill weight to provide 60 actuations. Each suspension was filled into Kindeva FEP coated canisters, crimped with a Kindeva 50-μL valve. Each pMDI unit was sonicated for at least 10 minutes to disperse the suspended drug and tested with a Kindeva actuator having an exit orifice diameter (EOD) of 0.4 mm.

[2] = Aerodynamic particle size measurement of sodium cromoglycate pMDI suspensions (Next Generation impactor)
Text: (§4) In general, aerosols with mass median aerodynamic diameters (MMAD) of at least 1 μm but less than 5 μm in size are suitable for effective deep lung deposition for therapeutic effect. Herein, fine particle fraction (FPF) is defined as the percentage of the ex-actuator delivered API having a MMAD of less than 5 μm when tested in vitro. Herein, “ex-actuator” delivered dose is used to describe the amount of API delivered past the actuator of a pMDI. Therefore, an aerosol with a high FPF is typically suitable for deep lung deposition.
as §1, §2
as §3, with “mm” for “mm.”
(§5) The mass median aerodynamic diameter (MMAD) and fine particle fraction (FPF) of each pMDI unit were measured by Next Generation cascade impaction (N=3) for each pMDI suspension.

[3] = Aerodynamic particle size measurement of salbutamol sulfate pMDI suspensions (Next Generation impactor)
Text: as §4, §1
as §3, with “six” for “ten”
as §5

[4] = nominal ex-valve 0.5 mg/act, HFA-152a
[5] = nominal ex-valve 0.5 mg/act, HFA-152a/2% EtOH (w/w)
[6] = nominal ex-valve 0.5 mg/act, HFO-1234ze(E)
[7] = nominal ex-valve 0.5 mg/act, HFO-1234ze(E)/2% EtOH (w/w)
[8] = nominal ex-valve 1.0 mg/act, HFA-152a
[9] = nominal ex-valve 1.0 mg/act, HFA-152a/2% EtOH (w/w)
[10] = nominal ex-valve 1.0 mg/act, HFO-1234ze(E)
[11] = nominal ex-valve 1.0 mg/act, HFO-1234ze(E)/2% EtOH (w/w)
[12] = nominal ex-valve 2.0 mg/act, HFA-152a
[13] = nominal ex-valve 2.0 mg/act, HFO-1234ze(E)

O=C(O)c1cc(=O)c2c(OCC(O)COc3cccc4oc(C(=O)O)cc(=O)c34)cccc2o1 [sodium cromoglycate]
effect of addition of ethanol on through unit life ex-actuator delivered dose consistency ([1]; 2% ethanol by weight, HFA-152a or HFO-1234ze(E)): did not always substantially improve | through unit life ex-actuator delivered dose consistency ([1]; HFA-152a or HFO-1234ze(E) with and without 2% ethanol by weight): relatively consistent | MoL mean delivered dose [1, 4]: 363.8 μg/act | SoL mean delivered dose [1, 4]: 611.8 μg/act | TL mean delivered dose [1, 4]: 427.8 μg/act | EoL mean delivered dose [1, 5]: 313.6 μg/act | MoL mean delivered dose [1, 5]: 331.6 μg/act | SoL mean delivered dose [1, 5]: 675.8 μg/act | TL mean delivered dose [1, 5]: 440.3 μg/act | EoL mean delivered dose [1, 6]: 158.7 μg/act | MoL mean delivered dose [1, 6]: 354.1 μg/act | SoL mean delivered dose [1, 6]: 419.4 μg/act | TL mean delivered dose [1, 6]: 310.7 μg/act | EoL mean delivered dose [1, 7]: 315.4 μg/act | MoL mean delivered dose [1, 7]: 332.8 μg/act | SoL mean delivered dose [1, 7]: 940.2 μg/act | TL mean delivered dose [1, 7]: 529.5 μg/act | EoL mean delivered dose [1, 8]: 618.4 μg/act | MoL mean delivered dose [1, 8]: 931.3 μg/act | SoL mean delivered dose [1, 8]: 950.3 μg/act | TL mean delivered dose [1, 8]: 833.3 μg/act | EoL mean delivered dose [1, 9]: 847.0 μg/act | MoL mean delivered dose [1, 9]: 906.3 μg/act | SoL mean delivered dose [1, 9]: 1027.9 μg/act | TL mean delivered dose [1, 9]: 927.0 μg/act | EoL mean delivered dose [1, 10]: 695.5 μg/act | MoL mean delivered dose [1, 10]: 784.8 μg/act | SoL mean delivered dose [1, 10]: 967.3 μg/act | TL mean delivered dose [1, 10]: 815.9 μg/act | EoL mean delivered dose [1, 11]: 735.1 μg/act | MoL mean delivered dose [1, 11]: 917.0 μg/act | SoL mean delivered dose [1, 11]: 876.4 μg/act | TL mean delivered dose [1, 11]: 842.9 μg/act | EoL mean delivered dose [1, 12]: 1694.4 μg/act | MoL mean delivered dose [1, 12]: 1590.1 μg/act | SoL mean delivered dose [1, 12]: 1782.4 μg/act | TL mean delivered dose [1, 12]: 1689.0 μg/act | EoL mean delivered dose [1, 13]: 119.8 μg/act | MoL mean delivered dose [1, 13]: 879.1 μg/act | SoL mean delivered dose [1, 13]: 2009.3 μg/act | TL mean delivered dose [1, 13]: 1255.0 μg/act | MMAD values of aerosols, suitability ([2]; HFA-152a or HFO-1234ze(E), with and without ethanol, in-vitro): in an appropriate respirable range | FPF and MMAD without ethanol compared with corresponding suspensions with 2% ethanol by weight ([2]; HFA-152a or HFO-1234ze(E), all nominal doses): consistently produced greater FPFs and smaller MMADs | Mean FPF [2, 4]: 33.0% | Mean MMAD [2, 4]: 3.59 μm | Mean FPF [2, 5]: 29.5% | Mean MMAD [2, 5]: 3.92 μm | Mean FPF [2, 6]: 41.3% | Mean MMAD [2, 6]: 3.41 μm | Mean FPF [2, 7]: 34.1% | Mean MMAD [2, 7]: 3.77 μm | Mean FPF [2, 8]: 28.2% | Mean MMAD [2, 8]: 3.85 μm | Mean FPF [2, 9]: 25.2% | Mean MMAD [2, 9]: 4.38 μm | Mean FPF [2, 10]: 34.7% | Mean MMAD [2, 10]: 3.72 μm | Mean FPF [2, 11]: 30.9% | Mean MMAD [2, 11]: 4.13 μm | Mean FPF [2, 12]: 24.7% | Mean MMAD [2, 12]: 4.39 μm | Mean FPF [2, 13]: 30.7% | Mean MMAD [2, 13]: 4.23 μm | FPF and MMAD in HFO-1234ze(E) compared with corresponding suspensions in HFA-152a ([2]; with or without ethanol): consistently produced greater FPFs and generally smaller MMADs

salbutamol sulfate
MMAD values of aerosols, suitability ([3]; HFA-152a or HFO-1234ze(E), in-vitro): in an appropriate respirable range | FPF and MMAD in HFO-1234ze(E) compared with corresponding suspensions in HFA-152a ([3]; no ethanol): consistently produced greater FPFs and smaller MMADs | Mean FPF [3, 4]: 45.6% | Mean MMAD [3, 4]: 2.98 μm | Mean FPF [3, 6]: 57.0% | Mean MMAD [3, 6]: 2.98 μm | Mean FPF [3, 8]: 40.8% | Mean MMAD [3, 8]: 3.30 μm | Mean FPF [3, 10]: 52.4% | Mean MMAD [3, 10]: 3.12 μm | Mean FPF [3, 12]: 30.3% | Mean MMAD [3, 12]: 3.92 μm | Mean FPF [3, 13]: 36.4% | Mean MMAD [3, 13]: 3.67 μm

Reference: patent US20260249027A1, “METERED DOSE INHALERS AND HIGH-DOSE SUSPENSIONS” (Kindeva Drug Delivery L.P., priority 2023, published 2026)
